Reference: patent publication US8952177B2 (Janssen Pharmaceutica NV, priority 2013, dated 2015)
Counter-ions that a name gives are not always drawn.

Assays:
human FLAP = human FLAP (Homo sapiens (Human), UniProt P20292); experiment: FLAP binding assay (HTRF format); details: human FLAP-containing Sf-9 membranes, 25 nM HTRF ligand, 2 h; average of runs; read-out: FLAP Binding wild type HTRF Ki
Protocol: The ability of the compounds of the present invention to treat a FLAP-mediated disease and/or disorder, or associated symptoms or complications thereof, was determined using the following procedures. Binding assay data represent the average value obtained from two different assay plates, with samples run in duplicate on each plate. Human whole blood assay data represent a single replicate on an assay plate using whole blood from at least one healthy donor.
The assay below is used to test the modulatory activity of compounds against FLAP. Human and mouse FLAP-encoding DNA was amplified by polymerase chain reaction and cloned into pFastBacl (Invitrogen) with a NH2-terminal 6-His tag for expression in Spodoptera frugiperda (Sf-9) cells. FLAP-containing membranes were prepared as was a FITC-labeled FLAP modulator (3-(3-(tert-butylthio)-1-(4-chlorobenzyl)-5-(quinolin-2-ylmethoxy)-1H-indol-2-yl)-2,2-dimethylpropanoic acid). The FLAP binding assay is performed in HTRF format (homogeneous time resolved fluorescence). […] The reaction is allowed to proceed for two hours after which the plate is read on an Envision plate reader in HTRF mode. Data are expressed as a HTRF ratio.
For human FLAP binding assays, data are analyzed with 3DX Explorer software. […] For analysis, data from multiple runs are averaged and each compound may be tested in 2 to 20 runs. Each run comprises two plates and each plate includes duplicates. Data from each plate is averaged and data are imported into 3DX. The data from multiple runs are aggregated as the average of duplicates of the calculated ratios in order to calculate Ki and IC50 values. Numbers in parentheses are the number of runs for the assay.

[1] = tested on: leukotriene pathway in human whole blood (LTB4); experiment: Human whole blood assay (LTB4 after calcium ionophore A23187 stimulation); format: cell-based; details: human whole blood diluted 1:1 in RPMI, 15 min pre-incubation, A23187 7 μg/mL for 30 min at 37° Celsius
In short: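 Heparinised human whole blood, diluted 1:1 in RPMI, was preincubated with compound for 15 min at 37° C. before stimulation with A23187 (7 μg/mL) for 30 min. Plasma LTB4 was measured by immunoassay kit and IC50 obtained by 4-parameter fit; single replicate per plate, blood from at least one donor.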

Sequence of human FLAP (P20292 whole entry): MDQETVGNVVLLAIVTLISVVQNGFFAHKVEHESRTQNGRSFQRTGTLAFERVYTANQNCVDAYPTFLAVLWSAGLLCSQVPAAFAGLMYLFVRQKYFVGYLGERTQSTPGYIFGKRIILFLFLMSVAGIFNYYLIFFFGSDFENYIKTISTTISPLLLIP

Structure (SMILES) | Ki (human FLAP) | IC50 ([1]; Homo sapiens) | IC50 [1]
Cc1cccc(COc2ccc3nc(CC(C)(C)C(=O)O)n(Cc4ccc(Br)cc4)c3c2)n1 [Example 108, 3-{1-(4-Bromobenzyl)-6-[(6-methylpyridin-2-yl)methoxy]-1H-benzimidazol-2-yl}-2,2-dimethylpropanoic acid] | 2240 nM |  | 
Cc1ccc(COc2cc(Cl)c3nc(CC(C)(C)C(=O)O)n(Cc4ccc(Br)cc4)c3c2)nc1 [Example 79, 3-{1-(4-Bromobenzyl)-4-chloro-6-[(5-methylpyridin-2-yl)methoxy]-1H-benzimidazol-2-yl}-2,2-dimethylpropanoic acid] | 85 nM | ~20000 nM | 
Cc1ccc(COc2ccc3nc([C@@H]4CCCC[C@@H]4C(=O)O)n(Cc4ccc(C#N)cc4)c3c2)nc1 (stereo in doubt) [Example 38, (1S*,2R*)-2-{1-(4-Cyanobenzyl)-6-[(5-methylpyridin-2-yl)methoxy]-1H-benzimidazol-2-yl}cyclohexanecarboxylic acid] | > 10000 nM |  | 
Cn1ccc(COc2cc(F)c3nc(C4CCCC[C@@H]4C(=O)O)n(Cc4ccc(N5CC(F)(F)C5)cc4)c3c2)n1 (mixture of isomers) [Example 168, racemic cis-2-{1-[4-(3,3-Difluoroazetidin-1-yl)benzyl]-4-fluoro-6-[(1-methyl-1H-pyrazol-3-yl)methoxy]-1H-benzimidazol-2-yl}cyclohexanecarboxylic acid as the formate salt] | 7.8 nM |  | 3570 nM
Cn1ccc(COc2cc(F)c3nc([C@@H]4CCCC[C@@H]4C(=O)O)n(Cc4ccc(Br)cc4F)c3c2)n1 (racemic) [Example 94, racemic cis-2-{1-(4-Bromo-2-fluorobenzyl)-4-fluoro-6-[(1-methyl-1H-pyrazol-3-yl)methoxy]-1H-benzimidazol-2-yl}cyclohexanecarboxylic acid] | 2.4 nM | 340 nM | 
CCC(CC)(Cc1nc2ccc(OCc3ncc(C)cc3F)cc2n1Cc1ccc(N2CCC(C)CC2)cc1)C(=O)O [Example 180, 2-Ethyl-2-({6-[(3-fluoro-5-methylpyridin-2-yl)methoxy]-1-[4-(4-methylpiperidin-1-yl)benzyl]-1H-benzimidazol-2-yl}methyl)butanoic acid] | 3 nM | 560 nM | 
Cc1cnc(COc2ccc3nc([C@@H]4CCCC[C@@H]4C(=O)O)n(Cc4ccc(N5CCC(C)CC5)cc4)c3c2)c(F)c1 (racemic) [Example 178, racemic cis-2-{6-[(3-Fluoro-5-methylpyridin-2-yl)methoxy]-1-[4-(4-methylpiperidin-1-yl)benzyl]-1H-benzimidazol-2-yl}cyclohexanecarboxylic acid] | 1.2 nM | 47 nM | 
Cn1ccc(COc2ccc3nc([C@@H]4[C@H](C(=O)O)C4(C)C)n(Cc4ccc(OC(F)(F)F)cc4)c3c2)n1 (racemic) [Example 122, racemic cis-2,2-Dimethyl-3-{6-[(1-methyl-1H-pyrazol-3-yl)methoxy]-1-[4-(trifluoromethoxy)benzyl]-1H-benzimidazol-2-yl}cyclopropanecarboxylic acid] | ~830 nM | 3400 nM | 
Cn1cc(F)c(COc2ccc3nc([C@@H]4CCCC[C@@H]4C(=O)O)n(Cc4ccc(OC(F)(F)F)cc4F)c3c2)n1 (racemic) [Example 85, racemic cis-2-{6-[(4-Fluoro-1-methyl-1H-pyrazol-3-yl)methoxy]-1-[2-fluoro-4-(trifluoromethoxy)benzyl]-1H-benzimidazol-2-yl}cyclohexanecarboxylic acid] | 1.4 nM | 680 nM | 
Cc1ccc(COc2cc(Cl)c3nc(CC4(C(=O)O)CCCC4)n(Cc4ccc(Br)cc4)c3c2)nc1 [Example 78, 1-({1-(4-Bromobenzyl)-4-chloro-6-[(5-methylpyridin-2-yl)methoxy]-1H-benzimidazol-2-yl}methyl)cyclopentanecarboxylic acid] | 24 nM | 14000 nM | 
CCC(CC)(Cc1nc2ccc(OCc3ccn(C)n3)cc2n1Cc1ccc(OC(F)(F)F)cc1C)C(=O)O [Example 92] | ~250 nM | 1440 nM | 
CCC(CC)(Cc1nc2ccc(OCc3ncc(C)cc3F)cc2n1Cc1ccc(Br)cc1)C(=O)O [Example 136, 2-({1-(4-Bromobenzyl)-6-[(3-fluoro-5-methylpyridin-2-yl)methoxy]-1H-benzimidazol-2-yl}methyl)-2-ethylbutanoic acid] | 0.64 nM | 480 nM | 
CCC(CC)(Cc1nc2ccc(OCc3ccn(C)n3)cc2n1Cc1ccc(N2CCC(C(F)(F)F)CC2)cc1)C(=O)O [Example 190, 2-ethyl-2-((6-((1-methyl-1H-pyrazol-3-yl)methoxy)-1-(4-(4-(trifluoromethyl)piperidin-1-yl)benzyl)-1H-benzo[d]imidazol-2-yl)methyl)butanoic acid] | 210 nM | 930 nM | 
Cc1cccc(COc2ccc3nc([C@@H]4[C@H](C(=O)O)C4(C)C)n(Cc4ccc(Br)cc4)c3c2)n1 (racemic) [Example 133, racemic cis-3-{1-(4-Bromobenzyl)-6-[(6-methylpyridin-2-yl)methoxy]-1H-benzimidazol-2-yl}-2,2-dimethylcyclopropanecarboxylic acid] | ~1500 nM |  | 
Cc1ccc(Cn2c(CC3(C(=O)O)CCCC3)nc3c(F)cc(OCc4ccc(C)cn4)cc32)cc1 [Example 73, 1-({4-Fluoro-1-(4-methylbenzyl)-6-[(5-methylpyridin-2-yl)methoxy]-1H-benzimidazol-2-yl}methyl)cyclopentanecarboxylic acid as the TFA salt] | 52 nM | 3250 nM | 
Cc1ccc(COc2cc3c(cc2Cl)nc([C@H]2CCCC[C@H]2C(=O)O)n3Cc2ccc(OC(F)(F)F)cc2F)nc1 (racemic) [Example 110, racemic cis-2-{5-Chloro-1-[2-fluoro-4-(trifluoromethoxy)benzyl]-6-[(5-methylpyridin-2-yl)methoxy]-1H-benzimidazol-2-yl}cyclohexanecarboxylic acid as the HCl salt] | 920 nM |  | 
Cn1ccc(COc2ccc3nc([C@@H]4CCCC[C@@H]4C(=O)O)n(Cc4ccc(OC(F)(F)F)cc4F)c3c2F)n1 (racemic) [Example 91, racemic cis-2-{7-Fluoro-1-[2-fluoro-4-(trifluoromethoxy)benzyl]-6-[(1-methyl-1H-pyrazol-3-yl)methoxy]-1H-benzimidazol-2-yl}cyclohexanecarboxylic acid] | 6.6 nM | 170 nM | 
CCC(CC)(Cc1nc2ccc(OCc3ccc(C)cn3)cc2n1Cc1ccc(C#N)cc1)C(=O)O [Example 19, 2-({1-(4-Cyanobenzyl)-6-[(5-methylpyridin-2-yl)methoxy]-1H-benzimidazol-2-yl}methyl)-2-ethylbutanoic acid as the TFA salt] | ~750 nM |  | 
Cn1ccc(COc2ccc3nc([C@@H]4[C@@H](C(=O)O)C4(C)C)n(Cc4ccc(Br)cc4)c3c2)n1 (racemic) [Example 117, racemic trans-3-{1-(4-Bromobenzyl)-6-[(1-methyl-1H-pyrazol-3-yl)methoxy]-1H-benzimidazol-2-yl}-2,2-dimethylcyclopropanecarboxylic acid as the TFA salt] | ~1880 nM |  | 
CCC(CC)(Cc1nc2ccc(OCc3ccn(C)n3)cc2n1Cc1ccc(N2CCCCC2)cc1)C(=O)O [Example 43, 2-Ethyl-2-({6-[(1-methyl-1H-pyrazol-3-yl)methoxy]-1-(4-piperidin-1-ylbenzyl)-1H-benzimidazol-2-yl}methyl)butanoic acid] | ~940 nM |  | 
Cn1ccc(COc2ccc3nc(CC(C)(C)C(=O)O)n(Cc4ccc(Br)cc4)c3c2)n1 [Example 107, 3-{1-(4-Bromobenzyl)-6-[(1-methyl-1H-pyrazol-3-yl)methoxy]-1H-benzimidazol-2-yl}-2,2-dimethylpropanoic acid] | 430 nM |  | 
Cn1ccc(COc2ccc3nc([C@@H]4CCCC[C@@H]4C(=O)O)n(Cc4ccc(C#N)cc4)c3c2)n1 (racemic) [Example 47, racemic cis-2-{1-(4-Cyanobenzyl)-6-[(1-methyl-1H-pyrazol-3-yl)methoxy]-1H-benzimidazol-2-yl}cyclohexanecarboxylic acid as the TFA salt] | ~490 nM |  | 
Cn1ccc(COc2ccc3nc(C4CCCC[C@@H]4C(=O)O)n(Cc4ccc(C#N)cc4)c3c2)n1 (mixture of isomers) [Example 48, racemic trans-2-{1-(4-Cyanobenzyl)-6-[(1-methyl-1H-pyrazol-3-yl)methoxy]-1H-benzimidazol-2-yl}cyclohexanecarboxylic acid as the TFA salt] | ~750 nM |  | 
CCC(CC)(Cc1nc2ccc(OCc3ccn(C)n3)cc2n1Cc1ccc(OC(F)(F)F)cc1)C(=O)O [Example 50, 2-Ethyl-2-({6-[(1-methyl-1H-pyrazol-3-yl)methoxy]-1-[4-(trifluoromethoxy)benzyl]-1H-benzimidazol-2-yl}methyl)butanoic acid] | ~100 nM |  | 
